Test results taken from patent US20090036426A1 (AMPLA Pharmaceuticals Inc., priority 2007, published 2009).

Experiments:
CB1 receptor [1] = molecular target: T1, CB1 receptor (Homo sapiens, UniProt P21554); experiment: Functional activity versus the CB1 receptor (statement, no method)
CB1 receptor [2] = molecular target: T1, CB1 receptor; experiment: [35S]GTPγS binding assay on CHO-k1 cell membranes; type: biochemical; set-up: expressed in transfected cells; host or cells: CHO-k1 cell membranes
Procedure: [^35S]GTPγS binding assays were performed with CHO-k1 cell membranes stably expressing human CB1 receptors in 96-well ScintiPlate (PerkinElmer). The membranes (12.5 μg/well) were preincubated with compound 7 in the binding buffer (50 mM Tris-HCl, pH 7.4, 100 mM NaCl, 3 mM MgCl2, 0.2 mM EDTA, 0.2% BSA and 10 μM GDP) at 30° C. for 30 min, then added various concentrations of agonists (WIN 55212-2 or CP 55,940) and [^35S]GTPγS (0.2 nM) in a final volume of 200 μl. Reactions were carried out at 30° C. for 60 min, followed by centrifugation of plate at […] for 15 min. After removing supernatant, the radioactivity was quantitated on a TopCounter.

[3] = molecular target: T2, Human Cannabinoid 1 (CB1) receptor (Homo sapiens, UniProt P21554); experiment: Ca2+i response to 2-AG dose-response in CB1 cells with or without compound (DSIS flow cytometry); type: cell-based; conditions: 2-AG with or without compound, FIG. 2
T2 construct: expressed in transfected cells; host or cells: CHO cells stably expressing the GqΔGi chimera; clonal CB1 line
T2 sequence (P21554 whole entry): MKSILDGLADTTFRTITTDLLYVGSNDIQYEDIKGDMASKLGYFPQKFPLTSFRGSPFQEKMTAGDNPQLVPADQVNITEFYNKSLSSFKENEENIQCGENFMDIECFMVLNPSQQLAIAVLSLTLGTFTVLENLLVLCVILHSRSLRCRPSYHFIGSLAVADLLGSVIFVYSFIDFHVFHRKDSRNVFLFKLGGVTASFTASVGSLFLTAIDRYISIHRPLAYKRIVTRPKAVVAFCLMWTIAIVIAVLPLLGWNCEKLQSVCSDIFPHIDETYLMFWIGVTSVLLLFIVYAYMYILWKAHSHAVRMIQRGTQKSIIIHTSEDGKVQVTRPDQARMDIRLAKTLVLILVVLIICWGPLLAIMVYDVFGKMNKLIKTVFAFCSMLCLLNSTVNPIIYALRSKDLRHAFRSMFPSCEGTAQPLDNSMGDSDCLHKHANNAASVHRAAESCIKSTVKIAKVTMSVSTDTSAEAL
From the text: cDNA for the G protein GqΔGi chimera was generated by PCR and inserted into the polylinker region of the pcDNA3/hygro+ vector (Invitrogen). Stable expression of GqΔGi chimera protein in CHO cell line was generated under hygromycin selection. Human Cannabinoid 1 (CB1) cDNA was inserted into the polylinker region of the pcDNA3.1/(+) vector (Invitrogen) and DNA was introduced into the GqΔGi/CHO cell line by Lipofectamine reagent (Invitrogen). Cell lines stably expressing the CB receptor with GqΔGi chimera protein were generated by double selection with hygromycin and G418 (Coward, P., et al. 1999. Chimeric G proteins allow a high-throughput signaling assay of Gi-coupled receptors. Anal Biochem. 270:242-8).
CB1 Cells were plated 24-48 hours in advance, and were harvested with trypsin at ˜80% confluency. Cells were then centrifuged and resuspended two times in Hybridoma Media, the final time at a concentration of 1×10^6 cells/mL. Two μM of Indo-1 were added and cells were incubated for 1 hour on a rotator at room temperature. […]
The probe-loaded CB1 and Control cell mixture was placed in the Cell Suspension System on the DSIS where they were continuously rocked to keep them in a suspended state. […] The DSIS software, NVS Sampler, recorded a timing file and the CyAn software, Summit, recorded a data file. […]

CB1 receptor [4] = molecular target: T1, CB1 receptor; experiment: Dissociation kinetics assay with [3H]CP 55,940 on CHO-k1 cell membranes; type: binding; set-up: expressed in transfected cells; host or cells: CHO-k1 cell membranes; conditions: 0.75 nM [3H]CP 55,940, room temperature, FIG. 3
Procedure: Dissociation kinetics assays were performed with the non-selective cannabinoid receptor agonist ([^3H]CP 55,940) (0.75 nM) in the binding buffer containing 50 mM Tris-HCl, pH 7.4, 3 mM MgCl2, 1 mM EDTA, 0.2% BSA using CHO-k1 cell membranes stably expressing human CB1 receptors in 96-well plate format. The CB1 receptor membranes (10 μg/well) were incubated with 0.75 nM [^3H]CP 55,940 in 100 μl binding buffer at room temperature for 2 h. Dissociation was initiated with addition of 100 μl unlabeled CP 55,940 (10 μM) in binding buffer in the absence or presence of different concentrations of compounds (compound 7). Dissociation was carried out at room temperature for indicated time. To determine the non-specific binding, experiments were also performed in the presence of 10 μM unlabeled CP 55,940. Binding was terminated by addition of cold binding buffer and filtrated on Whatman GF/B glass-fiber filters using a sampling manifold. The filters were washed 6 times with cold binding buffer and air-dried overnight. The radioactivity was quantitated on a TopCounter (PerkinElmer) after adding scintillation fluid. Specific binding was defined as the difference between the binding in the presence and absence of 10 μM unlabeled CP 55,940.

CB1 receptor [5] = molecular target: T1, CB1 receptor; experiment: Competition ligand binding assay, CHO-k1 cell membranes; set-up: expressed in transfected cells; host or cells: CHO-k1 cell membranes; conditions: 0.75 nM radioligand, FIG. 6
Procedure: (§1) Competition ligand binding assays were performed with the non-selective cannabinoid receptor agonist ([^3H]CP 55,940) (0.75 nM) in the binding buffer containing 50 mM Tris-HCl, pH 7.4, 3 mM MgCl2, 1 mM EDTA, 0.2% BSA using CHO-k1 cell membranes stably expressing human CB1 receptors or mouse brain membrane preparations in 96-well plate format. The receptor membranes (10 μg/well) were pre-incubated with different concentrations of tested compounds in the binding buffer at room temperature for 30 min prior to addition of 0.75 nM [^3H]CP 55,940 in a final volume of 100 μl. The binding was carried out at room temperature for another 2 h. To determine the non-specific binding, experiments were also performed in the presence of 10 μM unlabeled CP 55,940. Binding was terminated by addition of cold binding buffer and filtrated on Whatman GF/B glass-fiber filters using a sampling manifold. The filters were washed 6 times with cold binding buffer and air-dried overnight. The radioactivity was quantitated on a TopCounter (PerkinElmer) after adding scintillation fluid. Specific binding was defined as the difference between the binding in the presence and absence of 10 μM unlabeled CP 55, 940.

CB2 receptor = molecular target: T3, CB2 receptor (Homo sapiens, UniProt P34972); experiment: Ca2+i response to 2-AG dose-response in CB2 receptor bearing cells with or without compound; type: cell-based; conditions: 2-AG with or without compound, FIG. 2
T3 construct: host or cells: CB2 receptor bearing cells (host line not described)
T3 sequence (P34972 whole entry): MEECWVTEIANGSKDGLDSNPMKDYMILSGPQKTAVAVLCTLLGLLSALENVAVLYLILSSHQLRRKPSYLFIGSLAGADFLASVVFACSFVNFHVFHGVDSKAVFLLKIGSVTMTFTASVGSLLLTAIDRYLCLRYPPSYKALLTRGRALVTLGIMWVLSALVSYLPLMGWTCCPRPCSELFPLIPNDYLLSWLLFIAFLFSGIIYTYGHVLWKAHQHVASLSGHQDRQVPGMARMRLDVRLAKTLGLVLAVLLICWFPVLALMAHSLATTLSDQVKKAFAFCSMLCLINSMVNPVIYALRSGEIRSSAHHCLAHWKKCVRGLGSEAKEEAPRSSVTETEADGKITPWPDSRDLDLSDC

[6] = molecular target: T4, mouse CB1 (mouse brain membrane) (Mus musculus, UniProt P47746); experiment: Competition ligand binding assay, mouse brain membrane preparations
T4 construct: or mouse brain membrane preparations in 96-well plate format; from tissue; host or cells: mouse brain membranes
T4 sequence (P47746 whole entry): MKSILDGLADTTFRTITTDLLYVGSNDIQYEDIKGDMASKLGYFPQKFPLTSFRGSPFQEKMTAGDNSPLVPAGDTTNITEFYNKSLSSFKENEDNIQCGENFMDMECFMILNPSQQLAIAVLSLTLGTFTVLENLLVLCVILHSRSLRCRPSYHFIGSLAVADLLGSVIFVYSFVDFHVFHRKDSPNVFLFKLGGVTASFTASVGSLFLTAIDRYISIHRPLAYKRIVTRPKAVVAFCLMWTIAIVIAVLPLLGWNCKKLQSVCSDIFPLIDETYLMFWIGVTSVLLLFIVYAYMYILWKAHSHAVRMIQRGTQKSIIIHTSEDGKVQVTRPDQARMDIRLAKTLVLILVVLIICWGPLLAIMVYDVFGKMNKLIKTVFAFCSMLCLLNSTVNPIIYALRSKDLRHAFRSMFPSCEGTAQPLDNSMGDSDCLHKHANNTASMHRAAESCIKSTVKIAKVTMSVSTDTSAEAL
Procedure: as §1

[7] = Body weight of diet-induced obese mice, chronic administration of Treatment E (Example 4)
[8] = Acute administration: wet mash and food intake and 24 h body weight in lean mice (Example 3); type: in vivo, male C57BL/6J mice; conditions: dosed orally at 10 mg/kg, one-way ANOVA
[9] = Body weight of diet-induced obese mice, repeated oral administration (Example 2); type: in vivo, male C57BL/6J mice; conditions: for reduction of body weight: dosed for 28 days, DIO mice, FIG. 8
Procedure: Sixty-five C57BL/6J mice (7-8 weeks of age) were ordered from Charles River, Margate, Kent. Mice were group housed in polypropylene cages with free access to a high fat diet (D12451 45% of Kcal derived from fat; Research Diets, New Jersey, USA) and tap water at all times. Animals were maintained at 21±4° C. and 55±20% humidity on a normal phase 12 h light-dark cycle (lights on 04:30 h)
Body weight and food and water intake were recorded daily. Following drug administration the animals were examined and any overt behaviour was recorded. For all dosing, the morning session was timed such that approximately half the mice were dosed at the time of lights out (09:30).
The test compounds were dissolved in 1% methylcellulose. Drugs were made up fresh each day 1-2 h before dosing and were administered using a dose volume in the range of 1-3 ml/kg. Drug doses were expressed as free base.
P<0.05 was considered to be statistically significant. Daily food and water intake data was analysed by ANOVA.

T1 sequence (P21554 whole entry): as the sequence (P21554 whole entry) above

## NCCC(Oc1ccc(C(F)(F)F)cc1)c1ccccc1 (racemic) [racemate of norfluoxetine, 3-(4-trifluoromethylphenoxy)-3-phenylpropylamine]
CB1 receptor [1]
  functional activity versus the CB1 receptor: antagonist

## CNCC[C@@H](Oc1ccc(C(F)(F)F)cc1)c1ccccc1 [(R)-fluoxetine]
CB1 receptor [1]
  functional activity versus the CB1 receptor: antagonist

## CNCC[C@H](Oc1ccc(C(F)(F)F)cc1)c1ccccc1 [(S)-Fluoxetine]
CB1 receptor [1]
  functional activity versus the CB1 receptor: inverse agonist

## Fc1ccc(C(OCCCc2c[nH]cn2)c2ccc(F)cc2)cc1 [compound 7]
CB1 receptor [2]; CB1 cell line, FIG. 4
  pA2 estimation using CP 55940 as an agonist: did not support an allosteric effect
CB1 receptor [2]; response dropped below basal levels, FIG. 5
  [35S]GTPγS binding: antagonist versus inverse agonist activity: inverse agonist activity
[3]
  effect on the 2-AG dose response (Ca2+i): right shift
CB1 receptor [4]
  effect on the dissociation rate of [3H]CP 55,940: no effect
CB1 receptor [5]
  inhibition of binding of [3H]CP 55,940: partially inhibited
CB2 receptor
  effect on the 2-AG dose response (Ca2+i): No effect
[6]; mouse brain membrane, FIG. 7
  inhibition of agonist (CP 55940) binding: inhibited
  inhibition of antagonist/inverse agonist (SR 141716) binding: inhibited
[6]; mouse brain membranes, 0.75 nM radioligand, FIG. 6
  inhibition of binding of [3H]CP 55,940: almost fully inhibited

## Cc1c(C(=O)NN2CCCCC2)nn(-c2ccc(Cl)cc2Cl)c1-c1ccc(Cl)cc1 [rimonabant]
[7]; 10 mg/kg orally, chronic administration, DIO mice, FIG. 22
  reduction in body weight: 15%
[7]; dosed orally at 10 mg/kg, p<0.001
  weight reduction as compared to vehicle on day 29 (Dunnett's test): statistically significant weight reduction
[8]
  24 hour body weight change versus vehicle: No significant differences
  body weight versus vehicle: No significant differences
  daily food intake versus vehicle: No significant differences
[9]; 10 mg/kg po
  reduction of body weight: 15%
[9]; 10 mg/kg po, p<0.001, DIO mice
  weight reduction as compared to vehicle on day 29 (Dunnett's test): statistically significant weight reduction

## CC(C)CC(N(C)C)C1(c2ccc(Cl)cc2)CCC1 (centres unmarked) [sibutramine]
[9]; 20 mg/kg po
  reduction of body weight: 2%
